Experimental data taken from ChEMBL document CHEMBL5512657, “Design, synthesis and evaluation of a pyrazolo[3,4-d]pyrimidine derivative as a novel and potent TGFβ1R1 inhibitor” (Eur J Med Chem, 2024).

Key:
TGF-beta receptor type-1 [1] = target: T1, TGF-beta receptor type-1 (Mus musculus, UniProt Q64729); assay: Inhibition of ALK5 signaling in mouse NIH3T3 cells transfected with (CAGA)12-luciferase reporter incubated for 18 hrs in presence of TGF-beta1 by dual-luciferase reporter assay; assay type: cell-based
T1 sequence (Q64729 whole entry): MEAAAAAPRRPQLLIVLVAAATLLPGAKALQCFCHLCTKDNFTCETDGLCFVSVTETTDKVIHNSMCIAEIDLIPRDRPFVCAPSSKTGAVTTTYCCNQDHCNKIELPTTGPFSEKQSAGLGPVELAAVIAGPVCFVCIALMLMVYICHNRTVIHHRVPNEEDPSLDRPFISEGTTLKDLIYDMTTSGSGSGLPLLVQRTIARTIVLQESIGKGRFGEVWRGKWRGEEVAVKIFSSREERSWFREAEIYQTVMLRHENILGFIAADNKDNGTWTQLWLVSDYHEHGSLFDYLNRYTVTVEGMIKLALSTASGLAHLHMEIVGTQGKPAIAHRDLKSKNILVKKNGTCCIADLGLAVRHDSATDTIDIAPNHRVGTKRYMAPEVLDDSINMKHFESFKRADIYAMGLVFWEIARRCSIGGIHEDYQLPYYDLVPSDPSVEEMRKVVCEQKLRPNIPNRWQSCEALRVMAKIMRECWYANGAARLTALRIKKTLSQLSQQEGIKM

Panc02 [2] = assay: Antitumor activity against mouse Panc02 cells implanted in C57BL/6J mouse model assessed as tumor growth inhibition at 10 mg/kg, ip administered every other day for 24 days relative to control; assay type: functional; conditions: Panc02, 576 h, time 24 day, read-out: TGI
PANC-1 [3] = assay: Antitumor activity against human PANC-1 xenografted in […] mouse model assessed as tumor growth inhibition at 10 mg/kg, ip administered every other day for 24 days relative to control; assay type: functional; conditions: PANC-1, 576 h, time 24 day, read-out: TGI
TGF-beta receptor type-1 [4] = target: T2, TGF-beta receptor type-1 (Homo sapiens, UniProt P36897); assay: Inhibition of TGFbetaR1 (unknown origin)
T2 sequence (P36897 whole entry): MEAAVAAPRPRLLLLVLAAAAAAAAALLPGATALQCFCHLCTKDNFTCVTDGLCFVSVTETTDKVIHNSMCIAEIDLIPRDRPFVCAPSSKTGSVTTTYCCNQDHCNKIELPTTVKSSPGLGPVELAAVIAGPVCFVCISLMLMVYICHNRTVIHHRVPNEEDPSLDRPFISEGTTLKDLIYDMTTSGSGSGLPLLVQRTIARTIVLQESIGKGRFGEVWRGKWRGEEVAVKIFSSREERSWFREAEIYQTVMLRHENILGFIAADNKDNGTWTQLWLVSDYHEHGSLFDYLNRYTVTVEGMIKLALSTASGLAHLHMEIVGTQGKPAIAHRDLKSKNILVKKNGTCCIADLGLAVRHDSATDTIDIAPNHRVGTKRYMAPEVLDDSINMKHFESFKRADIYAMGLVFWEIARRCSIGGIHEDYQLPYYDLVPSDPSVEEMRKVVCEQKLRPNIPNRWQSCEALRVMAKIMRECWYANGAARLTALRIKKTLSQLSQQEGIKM

TGF-beta receptor type-1 [5] = target: T2, TGF-beta receptor type-1; assay: Inhibition of ALK5 (unknown origin) incubated for 2 hrs in presence of ATP by ADP-Glo reagent based luminescence plate reader analysis
[6] = target: Voltage-gated inwardly rectifying potassium channel KCNH2 (Homo sapiens, UniProt Q12809); assay: Inhibition of human ERG stably expressed in HEK293 cells by manual patch clamp method; assay type: toxicity, cell-based
Chain of Voltage-gated inwardly rectifying potassium channel KCNH2 (Q12809 whole entry): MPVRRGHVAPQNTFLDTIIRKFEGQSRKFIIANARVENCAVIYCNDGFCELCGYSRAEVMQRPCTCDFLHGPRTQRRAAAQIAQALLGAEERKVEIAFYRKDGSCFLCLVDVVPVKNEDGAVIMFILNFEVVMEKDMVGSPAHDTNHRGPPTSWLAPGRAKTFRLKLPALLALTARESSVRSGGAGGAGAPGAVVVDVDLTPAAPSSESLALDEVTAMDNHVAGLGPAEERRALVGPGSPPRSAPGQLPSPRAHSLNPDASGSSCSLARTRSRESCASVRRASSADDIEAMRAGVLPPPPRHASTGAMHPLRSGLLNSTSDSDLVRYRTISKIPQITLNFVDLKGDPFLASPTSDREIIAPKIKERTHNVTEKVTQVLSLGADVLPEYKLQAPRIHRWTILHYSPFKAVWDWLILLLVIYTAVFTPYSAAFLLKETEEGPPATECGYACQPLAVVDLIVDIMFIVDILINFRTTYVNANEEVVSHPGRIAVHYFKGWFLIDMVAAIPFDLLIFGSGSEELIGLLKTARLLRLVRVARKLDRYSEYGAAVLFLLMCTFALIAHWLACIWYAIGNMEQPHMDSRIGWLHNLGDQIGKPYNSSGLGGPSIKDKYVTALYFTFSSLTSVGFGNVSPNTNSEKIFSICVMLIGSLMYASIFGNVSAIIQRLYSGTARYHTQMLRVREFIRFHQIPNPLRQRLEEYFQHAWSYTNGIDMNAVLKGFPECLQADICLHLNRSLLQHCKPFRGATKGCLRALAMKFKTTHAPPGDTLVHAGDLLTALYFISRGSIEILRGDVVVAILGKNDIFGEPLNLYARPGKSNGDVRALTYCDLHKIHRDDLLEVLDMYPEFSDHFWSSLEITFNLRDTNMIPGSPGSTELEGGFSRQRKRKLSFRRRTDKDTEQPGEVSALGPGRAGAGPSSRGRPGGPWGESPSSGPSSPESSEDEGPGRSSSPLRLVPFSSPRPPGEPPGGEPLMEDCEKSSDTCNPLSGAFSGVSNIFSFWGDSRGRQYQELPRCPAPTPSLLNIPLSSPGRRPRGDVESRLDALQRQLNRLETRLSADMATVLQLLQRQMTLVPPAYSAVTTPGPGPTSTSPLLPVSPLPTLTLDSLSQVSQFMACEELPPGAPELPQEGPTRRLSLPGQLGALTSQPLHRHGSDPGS

in vitro [7] = conditions: human, HEK293T cells
in vitro [8] = conditions: human, L02 cells
HepG2 = assay: cells; conditions: Homo sapiens, HepG2, 72 h
Kasumi 1 = assay: cells; conditions: Homo sapiens, Kasumi 1, 72 h
4T1 = assay: cells; conditions: Mus musculus, 4T1, 72 h
in vitro [9] = conditions: human, BEAS-2B cells
U-251 = assay: cells; conditions: Homo sapiens, U-251, 72 h
in vitro [10] = conditions: human, MCF-10A cells
PANC-1 [11] = assay: cells; conditions: Homo sapiens, PANC-1, 72 h
MDA-MB-231 = assay: cells; conditions: Homo sapiens, MDA-MB-231, 72 h
Panc02 [12] = assay: cells; conditions: Mus musculus, Panc02, 72 h
MV4-11 = assay: cells; conditions: Homo sapiens, MV4-11, 72 h

Structure (SMILES) | EC50 (TGF-beta receptor type-1 [1]) | further results
CC(C)(C)OC(=O)N1CC(Cn2nc(-c3ccc4[nH]ccc4c3)c3c(N)ncnc32)C1 | 750 nM | –
Nc1ncnc2c1c(-c1ccc3[nH]ccc3c1)nn2CCC1CCN(C(=O)OCc2ccccc2)CC1 | > 1000 nM | –
Nc1ccn([C@@H]2O[C@H](CO)[C@@H](O)C2(F)F)c(=O)n1 [GEMCITABINE] | – | inhibition in vivo at 10 mg/kg (Panc02 [2]): 92.1%; inhibition in vivo at 10 mg/kg (PANC-1 [3]): 82.2%
Nc1ncnc2c1c(-c1ccc3[nH]ccc3c1)nn2CCC1CCN(S(=O)(=O)c2ccccc2Cl)CC1 | 856 nM | –
Nc1ncnc2c1c(-c1ccc3[nH]ccc3c1)nn2CCC1CCN(S(=O)(=O)c2cc(F)cc(F)c2)CC1 | > 1000 nM | –
N#Cc1ccc(S(=O)(=O)N2CCC(CCn3nc(-c4ccc5[nH]ccc5c4)c4c(N)ncnc43)CC2)cc1 | > 1000 nM | –
Nc1ncnc2c1c(-c1ccc3[nH]ccc3c1)nn2CCC1CCN(S(=O)(=O)c2cc(Cl)ccc2Cl)CC1 | > 1000 nM | –
COc1ccc(S(=O)(=O)N2CCC(CCn3nc(-c4ccc5[nH]ccc5c4)c4c(N)ncnc43)CC2)c(OC)c1 | > 1000 nM | –
CC(C)(C)c1ccc(S(=O)(=O)N2CCC(CCn3nc(-c4ccc5[nH]ccc5c4)c4c(N)ncnc43)CC2)cc1 | > 1000 nM | –
Nc1ncnc2c1c(-c1ccc3[nH]ccc3c1)nn2CCC1CCN(S(=O)(=O)c2ccc(Cl)cc2Cl)CC1 | > 1000 nM | –
CC(=O)N1CCC(CCn2nc(-c3ccc4c(c3)OCO4)c3c(N)ncnc32)CC1 | > 1000 nM | –
Nc1ncnc2c1c(-c1ccc3[nH]ccc3c1)nn2CCC1CCNCC1 | > 1000 nM | –
CC(=O)c1nn(CCC2CCN(C(C)=O)CC2)c2ncnc(N)c12 | 485 nM | –
CC(=O)N1CCC(CCn2nc(-c3ccc4cc[nH]c4c3)c3c(N)ncnc32)CC1 | > 1000 nM | –
CC(C)(C)OC(=O)N1CCC(CCCn2nc(-c3ccc4[nH]ccc4c3)c3c(N)ncnc32)CC1 | 998 nM | –
Cc1cccc(-c2nc(C34CCC(C(N)=O)(CC3)CC4)[nH]c2-c2ccc3c(c2)OCO3)n1 | – | IC50 (TGF-beta receptor type-1 [4]): 47 nM
Nc1ncnc2c1c(-c1ccc3[nH]ccc3c1)nn2CCC1CCN(S(=O)(=O)c2cccnc2)CC1 | > 1000 nM | –
CC(=O)Nc1cccc(-c2nn(CCC3CCN(C(C)=O)CC3)c3ncnc(N)c23)c1 | > 1000 nM | –
CC(=O)N1CCC(CCn2nc(-c3ccc4ncccc4c3)c3c(N)ncnc32)CC1 | > 1000 nM | –
CC(=O)N1CCC(CCn2nc(-c3ccc4nccnc4c3)c3c(N)ncnc32)CC1 | > 1000 nM | –
Cc1cccc(-c2nn3c(c2-c2ccnc4ccc(C(N)=O)cc24)CCC3)n1 [GALUNISERTIB] | – | CC50 at 72 h (in vitro [7]): > 20000 nM; CC50 at 72 h (in vitro [8]): 17400 nM; CC50 (HepG2): 5460 nM; CC50 (Kasumi 1): 3120 nM; CC50 (4T1): > 20000 nM; CC50 at 72 h (in vitro [9]): 13000 nM; CC50 (U-251): 17000 nM; CC50 at 72 h (in vitro [10]): 19900 nM; CC50 (PANC-1 [11]): > 20000 nM; CC50 (MDA-MB-231): > 20000 nM; CC50 (Panc02 [12]): > 20000 nM; CC50 (MV4-11): > 20000 nM
Nc1ncnc2c1c(-c1ccc3[nH]ccc3c1)nn2CCC1CCN(S(=O)(=O)c2ccc3ccccc3c2)CC1 | 971 nM | –
Nc1ncnc2c1c(-c1ccc3[nH]ccc3c1)nn2CCC1CCN(S(=O)(=O)c2cccc(Cl)c2Cl)CC1 | 848 nM | –
Nc1ncnc2c1c(-c1ccc3[nH]ccc3c1)nn2CCC1CCN(S(=O)(=O)c2cccc(Cl)c2)CC1 | 1320 nM | –

More lines, main results first:

EC50 (TGF-beta receptor type-1 [1]) | Structure (SMILES) | further results
105 nM | CC(=O)N1CCC(CCn2nc(-c3ccc4[nH]c(C)cc4c3)c3c(N)ncnc32)CC1 | –
607 nM | Nc1ncnc2c1c(-c1ccc3[nH]ccc3c1)nn2CCC1CCN(S(=O)(=O)c2cccs2)CC1 | –
283 nM | CC(=O)N1CCC(CCn2nc(-c3ccc4c(ccn4C)c3)c3c(N)ncnc32)CC1 | –
302 nM | CC(=O)N1CCC(CCn2nc(-c3ccc(N)cc3C)c3c(N)ncnc32)CC1 | –
132 nM | COc1ccc(S(=O)(=O)N2CCC(CCn3nc(-c4ccc5[nH]ccc5c4)c4c(N)ncnc43)CC2)cc1 | –
90.8 nM | CCS(=O)(=O)N1CCC(CCn2nc(-c3ccc4[nH]ccc4c3)c3c(N)ncnc32)CC1 | –
682 nM | CC(=O)N1CCC(CCn2nc(-c3coc4ccccc34)c3c(N)ncnc32)CC1 | –
303 nM | Nc1ncnc2c1c(-c1ccc3[nH]ccc3c1)nn2CCC1CCN(S(=O)(=O)c2ccc(C(F)(F)F)cc2)CC1 | –
441 nM | CC(C)(C)OC(=O)N1CCC(CCn2nc(-c3ccc4[nH]ccc4c3)c3c(N)ncnc32)CC1 | –
689 nM | CC(C)(C)OC(=O)N1CCCC(Cn2nc(-c3ccc4[nH]ccc4c3)c3c(N)ncnc32)C1 (centres undefined) | –
525 nM | Nc1ncnc2c1c(-c1ccc3[nH]ccc3c1)nn2-c1ccc2cc[nH]c2c1 | –
138 nM | CC(C)(C)C(=O)N1CCC(CCn2nc(-c3ccc4[nH]ccc4c3)c3c(N)ncnc32)CC1 | –
403 nM | CC(=O)N1CCC(CCn2nc(-c3cc4cc[nH]c4cc3C)c3c(N)ncnc32)CC1 | –
488 nM | CC(C)(C)OC(=O)N1CCN(CCn2nc(-c3ccc4[nH]ccc4c3)c3c(N)ncnc32)CC1 | –
176 nM | CCCCS(=O)(=O)N1CCC(CCn2nc(-c3ccc4[nH]ccc4c3)c3c(N)ncnc32)CC1 | –
45.9 nM | CCCS(=O)(=O)N1CCC(CCn2nc(-c3ccc4[nH]ccc4c3)c3c(N)ncnc32)CC1 | –
374 nM | CC(C)(C)OC(=O)N1CCC(Cn2nc(-c3ccc4[nH]ccc4c3)c3c(N)ncnc32)CC1 | –
130 nM | CC(=O)N1CCC(CCn2nc(-c3ccc4ncsc4c3)c3c(N)ncnc32)CC1 | –
465 nM | C#CCCCC(=O)N1CCC(CCn2nc(-c3ccc4[nH]ccc4c3)c3c(N)ncnc32)CC1 | –
665 nM | COc1ccccc1C(=O)N1CCC(CCn2nc(-c3ccc4[nH]ccc4c3)c3c(N)ncnc32)CC1 | –
363 nM | CC(C)(C)OC(=O)N1CCC(Cn2nc(-c3ccc4[nH]ccc4c3)c3c(N)ncnc32)C1 (centres undefined) | IC50 (TGF-beta receptor type-1 [5]): 155 nM
295 nM | CC(=O)N1CCC(CCn2nc(-c3ccc4[nH]ncc4c3)c3c(N)ncnc32)CC1 | –
339 nM | Nc1ncnc2c1c(-c1ccc3[nH]ccc3c1)nn2CCC1CCN(S(=O)(=O)c2ccccc2F)CC1 | –
430 nM | COc1cc(F)cc(-c2nn(CCC3CCN(C(C)=O)CC3)c3ncnc(N)c23)c1 | –
15.3 nM | CC(=O)N1CCC(CCn2nc(-c3ccc4[nH]cc(C)c4c3)c3c(N)ncnc32)CC1 | IC50 [6]: 9870 nM
105 nM | Nc1ncnc2c1c(-c1ccc3[nH]ccc3c1)nn2CCC1CCN(S(=O)(=O)C2CC2)CC1 | –
131 nM | CC(C)S(=O)(=O)N1CCC(CCn2nc(-c3ccc4[nH]ccc4c3)c3c(N)ncnc32)CC1 | –
29.6 nM | CC(=O)N1CCC(CCn2nc(-c3ccc4[nH]ccc4c3)c3c(N)ncnc32)CC1 | IC50 [6]: 11700 nM
273 nM | Nc1ncnc2c1c(-c1ccc3[nH]ccc3c1)nn2CCC1CCN(C(=O)c2ccccc2)CC1 | –
348 nM | Cc1ccc(S(=O)(=O)N2CCC(CCn3nc(-c4ccc5[nH]ccc5c4)c4c(N)ncnc43)CC2)cc1 | –
